Reference: patent publication US10647690B2, “2,3-epoxy succinyl derivative, preparation method and use thereof” (Institute of Pharmacology and Toxicology Academy of …, priority 2016, dated 2020)
Like-named read-outs stand apart in the source and are kept apart here.

Target: T1, Cathepsin K (Homo sapiens, UniProt P43235)
T1 construct: purchased Biovision K150-100
T1 sequence (P43235 115-329): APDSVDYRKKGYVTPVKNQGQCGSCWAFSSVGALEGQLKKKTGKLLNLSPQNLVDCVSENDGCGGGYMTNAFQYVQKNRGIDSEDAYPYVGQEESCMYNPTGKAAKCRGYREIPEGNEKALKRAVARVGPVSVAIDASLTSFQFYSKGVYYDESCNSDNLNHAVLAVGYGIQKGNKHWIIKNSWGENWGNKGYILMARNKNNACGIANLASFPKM
Test: Preliminary screening of Cathepsin K (Cathepsin K Inhibitor Screening Kit K150-100, Biovision)
Assay type: biochemical
Conditions: relative inhibition rate vs 10 μM FF-FMK control
Procedure: 1. Method for preliminary screening of Cathepsin K:
Preliminary screening of Cathepsin K was performed by using Cathepsin K Inhibitor Screening Kit (Product No. K150-100) from Biovision Company.
1.1.1 Preparation of Cathepsin K enzyme solution: Cathepsin K enzyme (40 μl) and Cathepsin K reagent (80 μl) were added to Cathepsin K buffer (3.88 ml), and were mixed well, to prepare Cathepsin K enzyme solution with a volume of 4 ml, which was placed on ice for further use.
1.1.2 Preparation of a compound solution: different compounds were separately weighed and dissolved in DMSO (methyl sulfoxide), to prepare solutions at a concentration of 30 mM as stock solutions, and for some insoluble compounds, they were prepared into solutions at a concentration of 10 mM as stock solutions; the 30 mM and 10 mM compound stock solutions were diluted to 1 mM and 100 μM DMSO solutions, respectively; 1 mM and 100 μM compound DMSO solutions (2 μl) were separately added to CTSK buffer (18 μl), to prepare compound solutions at a final concentration of 100 μM and 10 μM, respectively, wherein the concentration of DMSO was 10%.
1.1.3 Preparation of Cathepsin K substrate solution: Cathepsin K substrate (160 μl) was added to Cathepsin K buffer (3.44 ml), and mixed homogeneously, to prepare Cathepsin K substrate solution with a volume of 3.6 ml, which was placed on ice for further use.
1.2 Method for screening Cathepsin K inhibitor: Cathepsin K enzyme solution (prepared in Item 1.1.1) was added to a 384-well plate (ProxiPlate-384 Plus, Perkinelmer) at 10 μl/well, and centrifuged at 1000 rpm for 1 min; the compound solution (prepared in Item 1.1.2) was then added at 2 µl/well, and centrifuged at 1000 rpm for 1 min, and every concentration was repeated in two wells; the plate was placed in a 25° C. incubator for 15 min; Cathepsin K substrate solution was then added at 8 μl/well, and centrifuged at 1000 rpm for 1 min; and finally, the fluorescence signal was read in Enspire, wherein the exciting light was at a wavelength of 400 nm, the emitting light was at a wavelength of 505 nm, and continuous reading was performed at 37° C. for 120 min.
1.3 Data analysis: the slope (S) for all the samples was calculated by ΔRFU (RFU2−RFU1) and time ΔT (T2−T1), including negative control (Enzyme Control, EC) and positive control (Inhibitor Control, IC: 10 μM FF-FMK), and the calculation formula was as followed: Relative inhibition rate %=(SEC−SS)/(SEC−SIC)*100.

[1] = 1 μM compound, replicate 1, read-out: Inhibition % (1 μM) replicate 1
[2] = 1 μM compound, replicate 2, read-out: Inhibition % (1 μM) replicate 2
[3] = 10 μM compound, replicate 1, read-out: Inhibition % (10 μM) replicate 1
[4] = 10 μM compound, replicate 2, read-out: Inhibition % (10 μM) replicate 2

Row | Compound | inhibition at 1 µM [1] | inhibition at 1 µM [2] | inhibition at 10 µM [3] | inhibition at 10 µM [4] | Inhibition % (1 μM) replicate 1 (1 μM compound, replicate 1) | Inhibition % (1 μM) replicate 2 (1 μM compound, replicate 2) | Inhibition % (10 μM) replicate 1 (10 μM compound, replicate 1) | Inhibition % (10 μM) replicate 2 (10 μM compound, replicate 2)
1 | CCOC(=O)[C@H]1O[C@@H]1C(=O)N[C@@H](CSCc1ccccc1)C(=O)N1CCCC1 [Compound 22, (2s, 3s)-2-ethoxycarbonyl-3-[2-[(s)-3-benzylthio-1-carbonyl-1-(tetrahydropyrrolyl)propane]formylamino]epoxysuccinic acid] | 16% | -4.45% | 29.7% | 19.5% |  |  |  | 
2 | CCOC(=O)[C@H]1O[C@@H]1C(=O)N[C@@H](CSCc1ccccc1)C(=O)N1CCC(c2ccccc2)CC1 [Compound 23, (2s, 3s)-2-ethoxycarbonyl-3-[2-[(s)-3-benzylthio-1-carbonyl-1-(4-phenylpiperidinyl)propane]formylamino]epoxysuccinic acid] | 16.1% | 37.7% | 70.1% | 63% |  |  |  | 
3 | CCOC(=O)[C@H]1O[C@@H]1C(=O)N[C@H](CSCc1ccccc1)C(=O)NCCc1ccc(OC)cc1 [Compound 26, (2s, 3s)-2-ethoxycarbonyl-3-[2-[(s)-3-benzylthio-1-carbonyl-1-(4-methoxyphenylethylamino)propane]formylamino]epoxysuccinic acid] |  |  |  |  | 35.73% | 44.11% | 67.87% | 63.25%
4 | CCOC(=O)[C@H]1O[C@@H]1C(=O)N[C@@H](CCSC)C(=O)NCC(C)(C)C [Compound 30, (2s, 3s)-2-ethoxycarbonyl-3-[2-[(s)-4-methylthio-1-carbonyl-1-(neopentylamino)butane]formylamino]epoxysuccinic acid] | 31.6% | 26.9% | 29.6% | 31.7% |  |  |  | 
5 | CCOC(=O)[C@H]1O[C@@H]1C(=O)N[C@@H](CCSC)C(=O)NC(C)(C)CC [Compound 31, (2s, 3s)-2-ethoxycarbonyl-3-[2-[(s)-4-methylthio-1-carbonyl-1-(tert-pentylamino)butane]formylamino]epoxysuccinic acid] | 30.5% | 36.6% | 44.1% | 45.4% |  |  |  | 
6 | CCOC(=O)[C@H]1O[C@@H]1C(=O)N[C@@H](CCSC)C(=O)NC(C)CC (some centres unmarked) [Compound 32] | 37.5% | 38.7% | 36.2% | 40.6% |  |  |  | 
7 | CCOC(=O)[C@H]1O[C@@H]1C(=O)N[C@@H](CCSC)C(=O)NCCc1ccc(C)cc1 [Compound 33, (2s, 3s)-2-ethoxycarbonyl-3-[2-[(s)-4-methylthio-1-carbonyl-1-(p-methylphenylethylamino)butane]formylamino]epoxysuccinic acid] | 36.6% | 33.1% | 34.9% | 36% |  |  |  | 
8 | CCOC(=O)[C@H]1O[C@@H]1C(=O)N[C@@H](CCSC)C(=O)N1CCCCC1CC (some centres unmarked) [Compound 35, (2s, 3s)-2-ethoxycarbonyl-3-[2-[(s)-4-methylthio-1-carbonyl-1-(2-ethylpiperidinyl)butane]formylamino]epoxysuccinic acid] | 37.8% | 22.8% | 72% | 61.1% |  |  |  | 
9 | CCOC(=O)[C@H]1O[C@@H]1C(=O)N[C@@H](CCSC)C(=O)N1CCSCC1 [Compound 36, (2s, 3s)-2-ethoxycarbonyl-3-[2-[(s)-4-methylthio-1-carbonyl-1-(thiomorpholinyl)butane]formylamino]epoxysuccinic acid] | 17.5% | 21.6% | 61.4% | 63.5% |  |  |  | 
10 | CCOC(=O)[C@H]1O[C@@H]1C(=O)N[C@@H](CCSC)C(=O)N1CCSC1 [Compound 38, (2s, 3s)-2-ethoxycarbonyl-3-[2-[(s)-4-methylthio-1-carbonyl-1-(tetrahydrothiazolyl)butane]formylamino]epoxysuccinic acid] | 36.8% | 37.9% | 44.3% | 41.4% |  |  |  | 
11 | CCOC(=O)[C@H]1O[C@@H]1C(=O)N[C@@H](CCSC)C(=O)N1CC(C)CC(C)C1 (some centres unmarked) [Compound 41, (2s, 3s)-2-ethoxycarbonyl-3-[2-[(s)-4-methylthio-1-carbonyl-1-(3,5-dimethylpiperidinyl)butane]formylamino]epoxysuccinic acid] | 32.1% | 30.8% | 64.2% | 61% |  |  |  | 
